Measured values from US10525055B2, “Opioid receptor antagonist prodrugs” (Nirsum Laboratories, Inc., priority 2017, dated 2020).

Legend:
[1] = Plasma stability assay, rat plasma; assay type: in vitro ADME; conditions: 37° C., 10 μM
[2] = Plasma stability assay, dog plasma; assay type: in vitro ADME; conditions: 37° C., 2 μM; for % remaining at time point in minutes, 15 min: 15 min (as headed); for % remaining at time point in minutes, 120 min: 120 min (as headed); for % remaining at time point in minutes, 480 min: 480 min (as headed); for % remaining at time point in minutes, 1440 min: 1440 min (as headed)
Method: (§1) Plasma stability determination of the test compounds in rat, dog, cynomolgus monkey and human plasma is performed using HPLC-MS. For rat, incubations are carried out in 96-well polypropylene plates in 5 aliquots of 70 μL each (one for each time point). […] Five time points are analyzed (0, 15, 120, 480 and 1440 min). […] All incubations are performed in duplicates. The samples are analyzed by HPLC-MS. The percentage of parent compound remaining after incubation in plasma is determined.

[3] = Plasma stability assay, monkey plasma; assay type: in vitro ADME, cynomolgus monkey; conditions: 37° C., 2 μM; for % remaining at time point in minutes, 15 min: 15 min (as headed); for % remaining at time point in minutes, 120 min: 120 min (as headed); for % remaining at time point in minutes, 480 min: 480 min (as headed); for % remaining at time point in minutes, 1440 min: 1440 min (as headed)
Method: as §1

[4] = Plasma stability assay, human plasma; assay type: in vitro ADME; conditions: 37° C., 2 μM; for % remaining at time point in minutes, 15 min: 15 min (as headed); for % remaining at time point in minutes, 120 min: 120 min (as headed); for % remaining at time point in minutes, 480 min: 480 min (as headed); for % remaining at time point in minutes, 1440 min: 1440 min (as headed)
Method: as §1

[5] = Liver S9 fraction stability, dog; assay type: in vitro ADME; conditions: 1.0 mg/ml S9 protein, 2 μM, 37° C.
Method: (§2) Liver S9 fraction stability determination of the test compounds in dog, cynomolgus monkey and human is performed using HPLC-MS. Test compound (2 μM, 0.1% DMSO, 1% Methanol final concentration) was assessed for stability in a 50 μl phosphate buffer containing 1.0 mg/ml S9 protein from each of the three species and 5 mM D-saccharic acid-1, 4-lactone. Samples were incubated at 37° C. for 60 minutes and the % compound remaining was assessed.

[6] = Liver S9 fraction stability, monkey; assay type: in vitro ADME, cynomolgus monkey; conditions: 1.0 mg/ml S9 protein, 2 μM, 37° C.
Method: as §2

[7] = Liver S9 fraction stability, human; assay type: in vitro ADME; conditions: 1.0 mg/ml S9 protein, 2 μM, 37° C.
Method: as §2

[8] = Solubility determination in oil (cottonseed oil, sesame oil)
Method: A known amount of test substance (˜40 mg) was weighed into the vial, 100 μL of oil was added and heated to 60° C. and then system was slurried to reach equilibrium. […] Extra oil was added into the vial once compound precipitated out and then the system was re-equilibrated at 1000 rpm at room temperature (25° C.). Final concentration was determined by HPLC method as described below in Table 6a and 6b.

[9] = Rat pharmacokinetic studies, intramuscular; assay type: in vivo, male Sprague Dawley Rats; conditions: rat IM, Sesame oil + 1% Benzyl Alcohol
Method: The purpose of this study is to determine the pharmacokinetics of test compounds in plasma, following intramuscular administration to male Sprague Dawley Rats (n=3, unless otherwise specified).
The dose formulation of 400 mg base equivalents/ml in sesame oil+1% benzyl alcohol (unless otherwise specified) was administered by intramuscular injection. The dose volume was determined by the animals' body weight determined on the morning of dosing day.
Each collected blood sample was centrifuged for 4 minutes at 4° C. and 10000 rpm for plasma collection. Plasma was collected and transferred into a pre-labeled PP tube in dry ice at each time point and precipitated immediately using ACN at a ratio of 1:4 (plasma:ACN). Centrifuged again (10 minutes, 12000 rpm) and obtain the supernatant.
After terminal collection, all supernatant was stored at approximately −80° C. until bioanalysis.
LC-MS/MS methods for the quantitative determination of test compound in biological matrix were developed. […] The sample analysis was performed concurrently with a set of calibration standards and two sets of QC samples using the LC-MS/MS method.
Plasma concentration versus time data was analyzed by non-compartmental approaches using the Phoenix WinNonlin 6.3 software program. Cmax, Tmax, T1/2, AUC(0-t), AUC(0-inf), MRT(0-t), MRT(0-inf) and graphs of plasma concentration versus time profile were prepared.

[10] = Dog pharmacokinetic studies, deep intramuscular; assay type: in vivo, Beagle dogs; conditions: dog IM, Sesame oil + 1% Benzyl Alcohol
KOR = molecular target: T1, KOR (Homo sapiens, UniProt P41145); test: Opioid receptor binding assay, KOR ([3H]Diprenorphine); conditions: KOR, MaxDose 10000 nM
T1 construct: expressed in transfected cells; membranes prepared from them
T1 sequence (P41145 whole entry): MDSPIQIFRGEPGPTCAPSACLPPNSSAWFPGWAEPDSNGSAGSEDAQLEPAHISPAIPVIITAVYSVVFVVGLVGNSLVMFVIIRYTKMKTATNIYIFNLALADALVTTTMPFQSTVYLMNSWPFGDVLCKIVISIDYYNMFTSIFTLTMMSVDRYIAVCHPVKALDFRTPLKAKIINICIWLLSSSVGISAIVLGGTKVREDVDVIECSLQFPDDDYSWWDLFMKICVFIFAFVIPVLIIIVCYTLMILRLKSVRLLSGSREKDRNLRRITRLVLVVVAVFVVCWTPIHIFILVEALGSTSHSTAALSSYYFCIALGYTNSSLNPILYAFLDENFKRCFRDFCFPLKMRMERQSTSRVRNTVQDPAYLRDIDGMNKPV

MOR = molecular target: T2, MOR (Homo sapiens, UniProt P35372); test: Opioid receptor binding assay, MOR ([3H]DAMGO); conditions: MOR, MaxDose 10000 nM
T2 construct: expressed in transfected cells; membranes prepared from them
T2 sequence (P35372 whole entry): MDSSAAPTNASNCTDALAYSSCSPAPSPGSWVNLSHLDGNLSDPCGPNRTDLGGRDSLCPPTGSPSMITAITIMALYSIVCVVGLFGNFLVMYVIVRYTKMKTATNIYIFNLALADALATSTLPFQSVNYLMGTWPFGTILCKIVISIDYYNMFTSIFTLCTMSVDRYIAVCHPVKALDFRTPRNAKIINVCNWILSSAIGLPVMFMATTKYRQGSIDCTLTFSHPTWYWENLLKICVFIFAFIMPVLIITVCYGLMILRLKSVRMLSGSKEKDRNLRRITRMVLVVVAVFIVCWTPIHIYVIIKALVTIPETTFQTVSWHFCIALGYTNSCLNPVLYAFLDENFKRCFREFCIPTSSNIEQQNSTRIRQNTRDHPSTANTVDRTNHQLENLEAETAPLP

[11] = heating temp. 60 °C, obs. temp. 25 °C

SMILES: C=C1CC[C@@]2(O)C3Cc4ccc(OC(=O)CCCCCCC/C=C/CCCCCCCC)c5c4[C@@]2(CCN3CC2CC2)[C@H]1O5 [Compound 15, (4aS,7aS,12bS)-3-(cyclopropylmethyl)-4a-hydroxy-7-methylene-2,3,4,4a,5,6,7,7a-octahydro-1H-4,12-methanobenzofuro[3,2-e]isoquinolin-9-yl (E)-octadec-9-enoate]
- % remaining at time point in minutes, 0 min [1]: 100%
- % remaining at time point in minutes, 15 min [1]: 72%
- % remaining at time point in minutes, 120 min [1]: 69.3%
- % remaining at time point in minutes, 480 min [1]: 52%
- % remaining at time point in minutes, 1440 min [1]: 35%
- % remaining at time point in minutes, 0 min [2]: 100%
- % remaining at time point in minutes, 15 min [2]: 82.5%
- % remaining at time point in minutes, 120 min [2]: 80.6%
- % remaining at time point in minutes, 480 min [2]: 90.1%
- % remaining at time point in minutes, 1440 min [2]: 86.1%
- % remaining at time point in minutes, 0 min [3]: 100%
- % remaining at time point in minutes, 15 min [3]: 74.5%
- % remaining at time point in minutes, 120 min [3]: 72.7%
- % remaining at time point in minutes, 480 min [3]: 80.6%
- % remaining at time point in minutes, 1440 min [3]: 76.5%
- % remaining at time point in minutes, 0 min [4]: 100%
- % remaining at time point in minutes, 15 min [4]: 83.3%
- % remaining at time point in minutes, 120 min [4]: 82.5%
- % remaining at time point in minutes, 480 min [4]: 107.1%
- % remaining at time point in minutes, 1440 min [4]: 109.0%
- Liver S9 Fraction Stability % remaining at 60 minutes, Dog [5]: 80.9%
- Liver S9 Fraction Stability % remaining at 60 minutes, Monkey [6]: 76.7%
- Liver S9 Fraction Stability % remaining at 60 minutes, Human [7]: 59.8%
- Approximate Solubility (mg/mL) in Excipient: Sesame oil ([8]; heating temp. 40 °C, obs. temp. 40 °C): <52 mg/mL
- Approximate Solubility (mg/mL) in Excipient: Sesame oil [8, 11]: >396.5 mg/mL
- AUC0-inf (ng · h/mL) prodrug ([9]; 80 mg/kg): 679 ng·h/mL
- AUC0-inf (ng · h/mL) prodrug ([9]; 123 mg/kg): 2574 ng·h/mL
- AUC0-inf (ng · h/mL) prodrug ([9]; 165 mg/kg): 2789 ng·h/mL
- Half-life t1/2 (hour) prodrug ([9]; 165 mg/kg): 500 h
- AUC0-inf (ng · h/mL) prodrug ([10]; 30 mg/kg): 521 ng·h/mL
- Half-life t1/2 (hour) prodrug ([10]; 30 mg/kg): 134 h
- AUC0-inf (ng · h/mL) prodrug ([10]; 48 mg/kg): 1144 ng·h/mL
- Half-life t1/2 (hour) prodrug ([10]; 48 mg/kg): 518 h
- AUC0-inf (ng · h/mL) prodrug ([10]; 96 mg/kg): 1353 ng·h/mL
- Half-life t1/2 (hour) prodrug ([10]; 96 mg/kg): 162 h

SMILES: C=C1CC[C@@]2(O)C3Cc4ccc(OC(=O)OCCCCCCCCCCCC)c5c4[C@@]2(CCN3CC2CC2)[C@H]1O5 [Compound 6, (4aS,7aS,12bS)-3-(cyclopropylmethyl)-4a-hydroxy-7-methylene-2,3,4,4a,5,6,7,7a-octahydro-1H-4,12-methanobenzofuro[3,2-e]isoquinolin-9-yl dodecyl carbonate]
- % remaining at time point in minutes, 0 min [1]: 100%
- % remaining at time point in minutes, 15 min [1]: 31.3%
- % remaining at time point in minutes, 120 min [1]: 7.6%
- % remaining at time point in minutes, 480 min [1]: 4%
- % remaining at time point in minutes, 1440 min [1]: 1.6%
- % remaining at time point in minutes, 0 min [2]: 100%
- % remaining at time point in minutes, 15 min [2]: 89.1%
- % remaining at time point in minutes, 120 min [2]: 96.9%
- % remaining at time point in minutes, 480 min [2]: 107.2%
- % remaining at time point in minutes, 1440 min [2]: 101.2%
- % remaining at time point in minutes, 0 min [3]: 100%
- % remaining at time point in minutes, 15 min [3]: 88.7%
- % remaining at time point in minutes, 120 min [3]: 74.3%
- % remaining at time point in minutes, 480 min [3]: 68.4%
- % remaining at time point in minutes, 1440 min [3]: 70.1%
- % remaining at time point in minutes, 0 min [4]: 100%
- % remaining at time point in minutes, 15 min [4]: 97.6%
- % remaining at time point in minutes, 120 min [4]: 102%
- % remaining at time point in minutes, 480 min [4]: 109.8%
- % remaining at time point in minutes, 1440 min [4]: 115.1%
- Liver S9 Fraction Stability % remaining at 60 minutes, Dog [5]: 17.1%
- Liver S9 Fraction Stability % remaining at 60 minutes, Monkey [6]: 0%
- Liver S9 Fraction Stability % remaining at 60 minutes, Human [7]: 5.3%
- %Inh@MaxDose (KOR): 99.6%
- %Inh@MaxDose (MOR): 102.5%
- Approximate Solubility (mg/mL) in Excipient: Cottonseed oil ([8]; Cottonseed oil, heating temp. 60 °C, obs. temp. 25 °C): >397 mg/mL
- Approximate Solubility (mg/mL) in Excipient: Sesame oil [8, 11]: >386 mg/mL
- AUC0-inf (ng · h/mL) prodrug ([9]; 80 mg/kg): 78.9 ng·h/mL
- Half-life t1/2 (hour) prodrug ([9]; 80 mg/kg): 340 h
- AUC0-inf (ng · h/mL) prodrug ([9]; 123 mg/kg): 620 ng·h/mL
- Half-life t1/2 (hour) prodrug ([9]; 123 mg/kg): 213 h
- AUC0-inf (ng · h/mL) prodrug ([9]; 165 mg/kg): 637 ng·h/mL
- Half-life t1/2 (hour) prodrug ([9]; 165 mg/kg): 204 h
- AUC0-inf (ng · h/mL) prodrug ([10]; 30 mg/kg): 398 ng·h/mL
- Half-life t1/2 (hour) prodrug ([10]; 30 mg/kg): 95 h
- AUC0-inf (ng · h/mL) prodrug ([10]; 96 mg/kg): 1290 ng·h/mL
- Half-life t1/2 (hour) prodrug ([10]; 96 mg/kg): 88 h
